The nature of this data set: Solubility in phosphate buffer pH 7.4. In a few lines:
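Solubility at pH 7.4 determined by stepwise addition of 200 mM phosphate buffer in 100 μL increments to 3 mg peptide, mixing briefly each time, until no insoluble material remained, then measured by liquid chromatography.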

[1] abbreviates: pH 7.4, aqueous buffer, pH 7.4 Phosphate Buffer - Solubility, 200 mM Phosphate buffer pH 7.4.
The mark [2] stands for this setting: pH 7.4, solubility in phosphate buffer at pH 7.4, 200 mM phosphate buffer pH 7.4.

Molecules are shown by their SMILES. Starred links: 1 amine or outer side, 2 acyl side, 3 side chain; linkers in the order of their positions; H or OH if unused. Non-standard residues stand in square brackets, D forms with d. Residues, ends and D or L forms follow the SMILES beside them. Groups on a side chain read outwards from the residue. *: point of attachment. C18 diacid = O=C(O)CCCCCCCCCCCCCCCCC(=O)*; C17 diacid = O=C(O)CCCCCCCCCCCCCCCC(=O)*; γGlu = O=C(O)[C@H](CCC(=O)[*:2])N[*:1]; NMeY = CN[C@@H](Cc1ccc(O)cc1)C(=O)O; AEEA = NCCOCCOCC(=O)O; Aib = CC(C)(N)C(=O)O

As to `CC[C@H](C)[C@H](NC(=O)[C@H](CCCCN)NC(=O)[C@H](CC(=O)O)NC(=O)[C@H](CC(C)C)NC(=O)[C@H](C)NC(=O)[C@@H](NC(=O)[C@H](CO)NC(=O)[C@H](Cc1ccc(O)cc1)NC(=O)[C@H](CC(=O)O)NC(=O)[C@H](CO)NC(=O)[C@@H](NC(=O)[C@H](Cc1ccccc1)NC(=O)[C@@H](NC(=O)CNC(=O)[C@H](CCC(=O)O)NC(=O)C(C)(C)NC(=O)[C@@H](N)Cc1ccc(O)cc1)[C@@H](C)O)[C@@H](C)CC)[C@@H](C)CC)C(=O)N[C@@H](C)C(=O)N[C@@H](CCC(N)=O)C(=O)N[C@@H](CCC(N)=O)C(=O)N[C@@H](CCCCNC(=O)COCCOCCNC(=O)COCCOCCNC(=O)CC[C@H](NC(=O)CC[C@H](NC(=O)CCCCCCCCCCCCCCCC(=O)O)C(=O)O)C(=O)O)C(=O)N[C@@H](Cc1ccccc1)C(=O)N[C@H](C(=O)N[C@@H](CCC(=O)O)C(=O)N[C@@H](Cc1c[nH]c2ccccc12)C(=O)N[C@@H](CC(C)C)C(=O)N[C@@H](CC(C)C)C(=O)N[C@@H](C)C(=O)N[C@@H](CCC(N)=O)C(=O)N[C@@H](CCCNC(=N)N)C(=O)N1CCC[C@H]1C(=O)N[C@@H](CO)C(=O)N[C@@H](CO)C(=O)NCC(=O)N[C@@H](C)C(=O)N1CCC[C@H]1C(=O)N1CCC[C@H]1C(=O)N1CCC[C@H]1C(=O)N[C@@H](CO)C(=O)O)C(C)C` [Compound 134] (H-Y[Aib]EGTFISDYSIALDKIAQQK([AEEA-AEEA-γGlu-γGlu-C17 diacid])FVEWLLAQRPSSGAPPPS-OH), the solubility under setting [1] was no less than 30 mg/mL and the solubility under setting [2] is no less than 15 mg/mL.
Regarding `CC[C@H](C)[C@H](NC(=O)[C@H](CCCCN)NC(=O)[C@H](CC(=O)O)NC(=O)[C@H](CC(C)C)NC(=O)[C@H](C)NC(=O)[C@@H](NC(=O)[C@H](CO)NC(=O)[C@H](Cc1ccc(O)cc1)NC(=O)[C@H](CC(=O)O)NC(=O)[C@H](CO)NC(=O)[C@@H](NC(=O)[C@H](Cc1ccccc1)NC(=O)[C@@H](NC(=O)CNC(=O)[C@H](CCC(=O)O)NC(=O)C(C)(C)NC(=O)[C@@H](N)Cc1ccc(O)cc1)[C@@H](C)O)[C@@H](C)CC)[C@@H](C)CC)C(=O)N[C@@H](C)C(=O)N[C@@H](CCC(N)=O)C(=O)NC(C)(C)C(=O)N[C@@H](CCCCNC(=O)COCCOCCNC(=O)COCCOCCNC(=O)CC[C@H](NC(=O)CC[C@H](NC(=O)CCCCCCCCCCCCCCCC(=O)O)C(=O)O)C(=O)O)C(=O)N[C@@H](Cc1ccccc1)C(=O)N[C@H](C(=O)N[C@@H](CCC(=O)O)C(=O)N[C@@H](Cc1c[nH]c2ccccc12)C(=O)N[C@@H](CC(C)C)C(=O)N[C@@H](CC(C)C)C(=O)N[C@@H](C)C(=O)N[C@@H](CCC(N)=O)C(=O)N[C@@H](CCCNC(=N)N)C(=O)NCC(=O)O)C(C)C` [Compound 132] (H-Y[Aib]EGTFISDYSIALDKIAQ[Aib]K([AEEA-AEEA-γGlu-γGlu-C17 diacid])FVEWLLAQRG-OH), the solubility is no less than 15 mg/mL (pH 7.4) and no less than 30 mg/mL (pH 7.4, aqueous buffer).
Taken in the same sequence, the figures for `CC[C@H](C)[C@H](NC(=O)[C@H](Cc1ccccc1)NC(=O)[C@@H](NC(=O)CNC(=O)[C@H](CCC(=O)O)NC(=O)C(C)(C)NC(=O)[C@H](Cc1ccc(O)cc1)NC)[C@@H](C)O)C(=O)N[C@@H](CO)C(=O)N[C@@H](CC(=O)O)C(=O)N[C@@H](Cc1ccc(O)cc1)C(=O)N[C@@H](CO)C(=O)N[C@H](C(=O)NC(C)(C)C(=O)N[C@@H](CC(C)C)C(=O)N[C@@H](CC(=O)O)C(=O)N[C@@H](CCCNC(=N)N)C(=O)NC(C)(C)C(=O)N[C@@H](CCCCNC(=O)COCCOCCNC(=O)COCCOCCNC(=O)CC[C@H](NC(=O)CC[C@H](NC(=O)CCCCCCCCCCCCCCCCC(=O)O)C(=O)O)C(=O)O)C(=O)N[C@@H](CCC(N)=O)C(=O)NC(C)(C)C(=O)N[C@@H](CC(=O)O)C(=O)N[C@@H](Cc1ccccc1)C(=O)N[C@H](C(=O)N[C@@H](CC(N)=O)C(=O)N[C@@H](Cc1c[nH]c2ccccc12)C(=O)N[C@@H](CC(C)C)C(=O)N[C@@H](CC(C)C)C(=O)N[C@@H](C)C(=O)N[C@@H](CCC(N)=O)C(=O)N[C@@H](CCCNC(=N)N)C(=O)NCC(=O)O)C(C)C)[C@@H](C)CC` [Compound 73] (H-[NMeY][Aib]EGTFISDYSI[Aib]LDR[Aib]K([AEEA-AEEA-γGlu-γGlu-C18 diacid])Q[Aib]DFVNWLLAQRG-OH) were no less than 15 mg/mL and no less than 30 mg/mL.
Under setting [1], `CC[C@H](C)[C@H](NC(=O)[C@H](Cc1ccccc1)NC(=O)[C@@H](NC(=O)CNC(=O)[C@H](CCC(=O)O)NC(=O)C(C)(C)NC(=O)[C@H](Cc1ccc(O)cc1)NC)[C@@H](C)O)C(=O)N[C@@H](CO)C(=O)N[C@@H](CC(=O)O)C(=O)N[C@@H](Cc1ccc(O)cc1)C(=O)N[C@@H](CO)C(=O)N[C@H](C(=O)NC(C)(C)C(=O)N[C@@H](CCCCNC(=O)CNC(=O)CNC(=O)CNC(=O)CNC(=O)CNC(=O)CC[C@H](NC(=O)CCCCCCCCCCCCCCCC(=O)O)C(=O)O)C(=O)N[C@@H](CC(=O)O)C(=O)N[C@@H](CCCNC(=N)N)C(=O)NC(C)(C)C(=O)N[C@@H](C)C(=O)N[C@@H](CCC(N)=O)C(=O)NC(C)(C)C(=O)N[C@@H](CC(N)=O)C(=O)N[C@@H](Cc1ccccc1)C(=O)N[C@H](C(=O)N[C@@H](CC(N)=O)C(=O)N[C@@H](Cc1c[nH]c2ccccc12)C(=O)N[C@@H](CC(C)C)C(=O)N[C@@H](CC(C)C)C(=O)N[C@@H](C)C(=O)N[C@@H](CCC(N)=O)C(=O)N[C@@H](CCCNC(=N)N)C(=O)N1CCC[C@H]1C(=O)N[C@@H](CO)C(=O)N[C@@H](CO)C(=O)NCC(=O)N[C@@H](C)C(=O)N1CCC[C@H]1C(=O)N1CCC[C@H]1C(=O)N1CCC[C@H]1C(=O)N[C@@H](CO)C(N)=O)C(C)C)[C@@H](C)CC` [Compound 261] gave a solubility of less than 6 mg/mL.
For `CC[C@H](C)[C@H](NC(=O)[C@H](CO)NC(=O)[C@H](Cc1ccc(O)cc1)NC(=O)[C@H](CC(=O)O)NC(=O)[C@H](CO)NC(=O)[C@@H](NC(=O)[C@H](Cc1ccccc1)NC(=O)[C@@H](NC(=O)CNC(=O)[C@H](CCC(=O)O)NC(=O)C(C)(C)NC(=O)[C@@H](N)Cc1ccc(O)cc1)[C@@H](C)O)[C@@H](C)CC)C(=O)N[C@@H](C)C(=O)N[C@@H](CC(C)C)C(=O)N[C@@H](CC(=O)O)C(=O)N[C@@H](CCCCN)C(=O)NC(C)(C)C(=O)N[C@@H](C)C(=O)N[C@@H](CCC(N)=O)C(=O)N[C@@H](CCCNC(=N)N)C(=O)N[C@@H](CCCCNC(=O)COCCOCCNC(=O)COCCOCCNC(=O)CC[C@H](NC(=O)CC[C@H](NC(=O)CCCCCCCCCCCCCCCCC(=O)O)C(=O)O)C(=O)O)C(=O)N[C@@H](Cc1ccccc1)C(=O)N[C@H](C(=O)N[C@@H](CCC(=O)O)C(=O)N[C@@H](Cc1c[nH]c2ccccc12)C(=O)N[C@@H](CC(C)C)C(=O)N[C@@H](CC(C)C)C(=O)N[C@@H](C)C(=O)N[C@@H](CCC(N)=O)C(=O)N[C@@H](CCCNC(=N)N)C(=O)NCC(=O)O)C(C)C` [Compound 156] (H-Y[Aib]EGTFISDYSIALDK[Aib]AQRK([AEEA-AEEA-γGlu-γGlu-C18 diacid])FVEWLLAQRG-OH), the solubility is no less than 15 mg/mL (pH 7.4) and no less than 30 mg/mL (pH 7.4, aqueous buffer).
Regarding `CC[C@H](C)[C@H](NC(=O)[C@H](CCCNC(=N)N)NC(=O)[C@H](CC(=O)O)NC(=O)[C@H](CCCCNC(=O)CNC(=O)CNC(=O)CNC(=O)CNC(=O)CNC(=O)CCCCCCCCCCCCCCCCC(=O)O)NC(=O)[C@H](C)NC(=O)[C@@H](NC(=O)[C@H](CO)NC(=O)[C@H](Cc1ccc(O)cc1)NC(=O)[C@H](CC(=O)O)NC(=O)[C@H](CO)NC(=O)[C@@H](NC(=O)[C@H](Cc1ccccc1)NC(=O)[C@@H](NC(=O)CNC(=O)[C@H](CCC(=O)O)NC(=O)C(C)(C)NC(=O)[C@H](Cc1ccc(O)cc1)NC)[C@@H](C)O)[C@@H](C)CC)[C@@H](C)CC)C(=O)N[C@@H](C)C(=O)N[C@@H](CCC(N)=O)C(=O)N[C@@H](CCCNC(=N)N)C(=O)N[C@@H](CC(N)=O)C(=O)N[C@@H](Cc1ccccc1)C(=O)N[C@H](C(=O)N[C@@H](CCC(=O)O)C(=O)N[C@@H](Cc1c[nH]c2ccccc12)C(=O)N[C@@H](CC(C)C)C(=O)N[C@@H](CC(C)C)C(=O)N[C@@H](C)C(=O)N[C@@H](CCC(N)=O)C(=O)N[C@@H](CO)C(=O)N1CCC[C@H]1C(=O)NCC(=O)O)C(C)C` [Compound 180], the solubility (pH 7.4) was no less than 15 mg/mL.
Consider `CC[C@H](C)[C@H](NC(=O)[C@H](Cc1ccccc1)NC(=O)[C@@H](NC(=O)CNC(=O)[C@H](CCC(=O)O)NC(=O)C(C)(C)NC(=O)[C@H](Cc1ccc(O)cc1)NC)[C@@H](C)O)C(=O)N[C@@H](CO)C(=O)N[C@@H](CC(=O)O)C(=O)N[C@@H](Cc1ccc(O)cc1)C(=O)N[C@@H](CO)C(=O)N[C@H](C(=O)NC(C)(C)C(=O)N[C@@H](CC(C)C)C(=O)N[C@@H](CC(=O)O)C(=O)N[C@@H](CCCNC(=N)N)C(=O)NC(C)(C)C(=O)N[C@@H](C)C(=O)N[C@@H](CCC(N)=O)C(=O)NC(C)(C)C(=O)N[C@@H](CCCCNC(=O)COCCOCCNC(=O)CC[C@H](NC(=O)CC[C@H](NC(=O)CCCCCCCCCCCCCCCCC(=O)O)C(=O)O)C(=O)O)C(=O)N[C@@H](Cc1ccccc1)C(=O)N[C@H](C(=O)N[C@@H](CC(N)=O)C(=O)N[C@@H](Cc1c[nH]c2ccccc12)C(=O)N[C@@H](CC(C)C)C(=O)N[C@@H](CC(C)C)C(=O)N[C@@H](C)C(=O)N[C@@H](CCC(N)=O)C(=O)N[C@@H](CO)C(=O)N1CCC[C@H]1C(=O)N[C@@H](CO)C(=O)N[C@@H](CO)C(=O)NCC(=O)N[C@@H](C)C(=O)N1CCC[C@H]1C(=O)N1CCC[C@H]1C(=O)N1CCC[C@H]1C(=O)N[C@@H](CO)C(N)=O)C(C)C)[C@@H](C)CC` [Compound 93] (H-[NMeY][Aib]EGTFISDYSI[Aib]LDR[Aib]AQ[Aib]K([AEEA-γGlu-γGlu-C18 diacid])FVNWLLAQSPSSGAPPPS-NH2), for which the solubility is, setting by setting: under setting [1], no less than 60 mg/mL; under setting [2], no less than 15 mg/mL.

Broadly, the solubility is the dissolved amount per volume that the medium holds. High values mean a readily soluble substance, low ones a poorly soluble substance.

(Values after patent publication US20230143604A1, “QW DOSING OF GIP RECEPTOR AGONIST PEPTIDE COMPOUNDS AND USES THEREOF” (TAKEDA PHARMACEUTICAL COMPANY LIMITED, priority 2020, published 2023).)
